According to patent US8273890B2 (4SC AG, priority 2007, dated 2012):

molecular target: T1, recombinant Plk1 protein (Homo sapiens, UniProt P53350); test: Plk1 kinase activity inhibition assay (33P-ATP, alpha casein substrate, flash plates); assay type: biochemical; conditions: enzymatic assay, 100 nM Li-ATP, 80 minutes at 30° C.
T1 construct: histidine tag (N); made in house; host or cells: SF9 insect cells
Summary of the method: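 N-terminally His-tagged human Plk1 from SF9 cells (50–100 ng/well) phosphorylated alpha casein (500 ng/well) with 100 nM ATP including 33P-ATP at pH 7.5, with Mg2+ and Mn2+, 80 min at 30 °C. 33P incorporation read on scintillator-coated flash plates; IC50 derived.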

T1 sequence (P53350 whole entry): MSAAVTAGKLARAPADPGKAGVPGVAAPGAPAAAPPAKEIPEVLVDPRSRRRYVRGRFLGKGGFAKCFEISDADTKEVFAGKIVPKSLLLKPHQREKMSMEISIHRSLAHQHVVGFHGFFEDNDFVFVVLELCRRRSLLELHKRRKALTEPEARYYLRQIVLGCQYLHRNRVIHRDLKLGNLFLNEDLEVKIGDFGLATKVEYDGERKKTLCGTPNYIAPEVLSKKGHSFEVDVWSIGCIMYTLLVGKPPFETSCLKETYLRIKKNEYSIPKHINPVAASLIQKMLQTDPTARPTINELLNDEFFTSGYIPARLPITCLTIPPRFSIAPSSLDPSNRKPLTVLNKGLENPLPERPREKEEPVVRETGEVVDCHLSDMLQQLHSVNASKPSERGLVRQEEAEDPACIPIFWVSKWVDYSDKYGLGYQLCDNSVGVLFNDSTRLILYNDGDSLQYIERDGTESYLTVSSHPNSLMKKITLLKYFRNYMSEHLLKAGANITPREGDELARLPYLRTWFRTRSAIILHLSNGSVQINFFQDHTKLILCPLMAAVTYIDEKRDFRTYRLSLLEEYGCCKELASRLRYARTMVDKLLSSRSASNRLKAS

Structure (SMILES) | IC50
C[C@@H](Oc1cc(-n2cnc3cnc(CN4CCN(c5ccncc5)CC4)cc32)sc1C(N)=O)c1ccccc1C(F)(F)F [Example 75, 5-{6-[(4-pyridin-4-ylpiperazin-1-yl)methyl]-1H-imidazo[4,5-c]pyridin-1-yl}-3-{(1R)-1-[2-(trifluoromethyl)phenyl]ethoxy}thiophene-2-carboxamide] | 10 to 100 nM
NC(=O)c1sc(-n2cnc3ncccc32)cc1OCc1ccccc1C(F)(F)F [Example 20, 5-(1H-Imidazo[4,5-b]pyridin-1-yl)-3-{[2-(trifluoromethyl)benzyl]oxy}thio-phene-2-carboxamide] | 100 to 1000 nM
COCCN1CCN(Cc2cc3ncn(-c4cc(OC(C)c5ccccc5F)c(C(N)=O)s4)c3cn2)CC1 (stereo not drawn) [Example 157, 3-[-1-(2-fluorophenyl)ethoxy]-5-(6-{[4-(2-methoxyethyl)piperazin-1-yl]methyl}-3H-imidazo[4,5-c]pyridin-3-yl)thiophene-2-carboxamide] | 100 to 1000 nM
C[C@@H](Oc1cc(-n2cnc3cc(CN4CCN(C)CC4)ncc32)sc1C(N)=O)c1ccccc1C(F)(F)F [Example 49, 5-{6-[(4-methylpiperazin-1-yl)methyl]-3H-imidazo[4,5-c]pyridin-3-yl}-3-{(1R)-1-[2-(trifluoromethyl)phenyl]ethoxy}thiophene-2-carboxamide] | 1000 to 10000 nM
C[C@@H](Oc1cc(-n2cnc3cc(CNS(C)(=O)=O)ncc32)sc1C(N)=O)c1ccccc1C(F)(F)F [Example 90, 5-(6-{[(methylsulfonyl)amino]methyl}-3H-imidazo[4,5-c]pyridin-3-yl)-3-{(1R)-1-[2-(trifluoromethyl)phenyl]ethoxy}thiophene-2-carboxamide] | 10 to 100 nM
CCC(Oc1cc(-n2cnc3cnc(CN4CCN(c5ccncc5)CC4)cc32)sc1C(N)=O)c1ccccc1Cl (stereo not drawn) [Example 143, 3-{[1-(2-chlorophenyl)propyl]oxy}-5-{6-[(4-pyridin-4-ylpiperazin-1-yl)methyl]-1H-imidazo[4,5-c]pyridin-1-yl}thiophene-2-carboxamide] | 10 to 100 nM
COc1cc2c(cn1)ncn2-c1cc(OCc2ccccc2C(F)(F)F)c(C(=O)O)s1 [Example 18, 5-(6-Methoxy-1H-imidazo[4,5-c]pyridin-1-yl)-3-{[2-(trifluoromethyl)benzyl]oxy}thiophene-2-carboxylic acid] | 10 to 100 nM
C[C@@H](Oc1cc(-n2cnc3cnc(CN4CCN(C(=O)N(C)C)CC4)cc32)sc1C(N)=O)c1ccccc1Cl [Example 128, 4-[(1-{5-carbamoyl-4-[(1R)-1-(2-chlorophenyl)ethoxy]-2-thienyl}-1H-imidazo[4,5-c]pyridin-6-yl)methyl]-N,N-dimethylpiperazine-1-carboxamide] | < 10 nM

The next lines start with the values.

IC50 | Structure (SMILES)
< 10 nM | Cc1ccccc1C(C)Oc1cc(-n2cnc3cnc(CO)cc32)sc1C(N)=O (stereo not drawn) [Example 110, 5-[6-(hydroxymethyl)-1H-imidazo[4,5-c]pyridin-1-yl]-3-[1-(2-methylphenyl)ethoxy]thiophene-2-carboxamide]
< 10 nM | CN1CCN(Cc2cc3c(cn2)ncn3-c2cc(OC(c3ccccc3Cl)C(F)(F)F)c(C(N)=O)s2)CC1 (stereo not drawn) [Example 76, 3-[1-(2-chlorophenyl)-2,2,2-trifluoroethoxy]-5-{6-[(4-methylpiperazin-1-yl)methyl]-1H-imidazo[4,5-c]pyridin-1-yl}thiophene-2-carboxamide]
< 10 nM | CCC(Oc1cc(-n2cnc3cnc(CO)cc32)sc1C(N)=O)c1ccccc1Cl (stereo not drawn) [Example 56, 3-{[1-(2-chlorophenyl)propyl]oxy}-5-[6-(hydroxymethyl)-1H-imidazo[4,5-c]pyridin-1-yl]thiophene-2-carboxamide]
< 10 nM | C[C@@H](Oc1cc(-n2cnc3cnc(CN4CCCN(C)CC4)cc32)sc1C(N)=O)c1ccccc1Cl [Example 129, 3-[(1R)-1-(2-chlorophenyl)ethoxy]-5-{6-[(4-methyl-1,4-diazepan-1-yl)methyl]-1H-imidazo[4,5-c]pyridin-1-yl}thiophene-2-carboxamide]
